Key:
[1] = test system: human foreskin fibroblasts AG1523; assay: Chemotaxis assay, modified Boyden chamber, PDGF-BB induced migration of fibroblasts; format: cell-based; settings: for migration of fibroblast in response to PDGF without FVIIa: without the ligand FVIIa; for effect of inhibitor on FVIIa/TF hyperchemotactic response to PDGF-BB: 30 min pretreatment
Description: Chemotaxis assay. The migration response of fibroblasts was assayed by means of the leading front technique in a modified Boyden chamber, as previously described (Nister et al., Cell 52, 791-799 (1988); Siegbahn et al. J. Clin. Invest. 85, 916-920 (1990)). Micropore filters (pore size 8 μm) were coated with a solution of type-i collagen at room temperature over night. The filters were air dried for 30 minutes immediately before use.
Human foreskin fibroblasts AG1523 were grown to confluence in Eagle's MEM supplemented with 10% FBS. The cells were detached by trypsinization (2.5 mg/ml for 10 minutes at 37° C.) and suspended in Eagle's MEM with 10% FBS. The fibroblasts were incubated for 10 minutes with or without FVIIa or FFR-FVIIa before assay. One hundred microliters of the cell suspension (2×10^5 cells/ml) was added above the filter of the Boyden chamber. PDGF-BB was diluted in assay media (Eagle's MEM with 10% FBS) and added below the filter in the chamber. The cells were incubated for 6 hours at 37° C. in a humidified chamber containing 95% air/5% CO2. FVIIa or FFR-FVIIa were present during the entire experiment. The filters were then removed, fixed in ethanol, stained with Mayer's Hemalun, and mounted. Migration was measured as the distance of the two furthest migrating fibroblast nuclei of one high-power field (12.5×24) in focus. The migration distance in each filter was calculated as the mean of the readings of at least three different parts of the filter. Experiments were performed with two to four separate filters for each concentration of chemoattractant. For each set of experiments, the migration of fibroblasts toward the assay media served as control. In cases when anti-TF monoclonal antibodies or inhibitors to coagulation factors, TAP and Hirudin, were used, cells were preincubated for 10 minutes with these agents, then with or without FVIIa or FFR-FVIIa before the chemotaxis assay was performed. Antibodies, TAP or Hirudin were also present during the entire chemotaxis experiment. In experiments where the effects on the migration response of different inhibitors, LY294002, U73122 or U73343, were tested, cells were preincubated for 30 minutes with the inhibitors at indicated concentrations, and the inhibitors were also present throughout the experiments.
Fibroblasts expressing active TF (FIG. 11) were incubated with 100 nM of FVIIa and seeded in the upper part of the modified Boyden chamber; while media containing 10% FBS and PDGF-BB at different concentrations were added below the […] micropore filter. The migration of the cells under conditions where medium containing 10% FBS without PDGF-BB was added below the filter was used as a measure of random migration, and calculated as 100% migration.

[2] = target: T1, factor VIIa/tissue factor complex (Homo sapiens, UniProt P08709); assay: TF-stimulated factor VIIa activity with chromogenic substrate S2288, zinc ion inhibition; format: biochemical; settings: 0.2 mM cystin dihydroxamate; 10 nM FVIIa, 50 nM TF1-218
T1 construct: TF1-218 from Dr W. Kisiel, University of New Mexico
T1 sequence (P08709 61-212 limits assumed): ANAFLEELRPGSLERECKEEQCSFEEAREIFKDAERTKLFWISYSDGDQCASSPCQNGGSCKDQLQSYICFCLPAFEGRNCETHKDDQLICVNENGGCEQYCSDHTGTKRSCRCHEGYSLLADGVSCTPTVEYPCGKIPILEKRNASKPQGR
T1 sequence (P08709 213-466 limits assumed): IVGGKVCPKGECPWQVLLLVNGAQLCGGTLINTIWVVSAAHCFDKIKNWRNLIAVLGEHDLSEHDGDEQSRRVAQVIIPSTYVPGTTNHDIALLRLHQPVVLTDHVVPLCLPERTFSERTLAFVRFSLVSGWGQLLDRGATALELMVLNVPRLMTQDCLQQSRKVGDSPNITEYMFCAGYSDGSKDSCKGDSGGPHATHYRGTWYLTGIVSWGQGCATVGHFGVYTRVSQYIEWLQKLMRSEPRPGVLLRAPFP
Description: Factor VIIa activity was measured with the chromogenic substrate S2288 (H-D-Ile-Pro-Arg-p-nitroanilide). The activity of 10 nM FVIIa in the presence of 50 nM TF1-218 (Dr W. Kisiel, University of New Mexico, Albuquerque, N. Mex.) was measured in buffer containing 50 mM TrisCl pH 7.4 0.1 M NaCl, 1 mM CaCl2, 0.05% Tween 20 and 0.4 mM S2288. The activity was measured at room temperature as the change in absorbance at 405 nm.

[3] = test system: human TF; assay: SRE/STAT luciferase reporter (KZ136) in BHK cells stably transfected with human TF; format: cell-based; settings: 50 μM PD98059 for one hour prior to 100 nM FVIIa
Description: BHK cells with and without stably transfected TF were stably transfected with KZ136 (reporter construct encoding 2×STAT1,3), 2×(STAT4,5,6) and a serum response element (SRE) upstream to a luciferase reporter gene) were stimulated with FVIIa. Only cells expressing TF responded to FVIIa in a dose dependent manner.
PD98059 is a specific inhibitor of MEK1, a kinase specifically involved in the p44/p42 MAPK cascade.
BHK cells stably transfected with the human TF and the reporter plasmid KZ136 were grown to 90% confluence, starved in DMEM with 0.1% FCS for 16 hours and then stimulated with FVIIa or FVIIai (FIG. 8). […] Also shown in FIG. 8 is an experiment where competition between FVIIa and FVIIai was studied. FVIIai was added to the cells 1 hour prior to stimulation with 20 nM FVIIa. The response induced by 20 nM FVIIa was inhibited 27%, 59%, 77%, and 91% by the addition of 20 nM, 50 nM, 100 nM, and 500 nM FVIIai, respectively.

[4] = test system: MAPK p44/42; assay: Western blot of phosphorylated MAPK p44/42 in BHK cells stably transfected with human TF; format: cell-based; settings: 100 nM for 5 min
Description: In this set of experiments with TF transfected BHK, ECV-304 and MDCK cell lines two antibodies raised against the MAPK were used, one targeting activated as well as non-activated forms of MAPK, and another, targeting only the activated (phosphorylated) form of MAPK.
BHK cells stable transfected with human TF were grown to 90% confluence and starved in DMEM with 0. 1% FCS for 24 hours prior to stimulation with FVIIa. Samples for Western blotting were sampled at 0, 3, 5, 7, 10, 20 and 40 minutes after addition of 100 nM FVIIa. […] Over the next 10 minutes the response declined to reach the background level at about 20 minutes after addition of FVIIa.
In this set of experiments with TF transfected BHK cell lines we used a phospho-specific antibody against phosphorylated (Thr202/Tyr204) p44/42 MAPK and an antibody targeting total p44/42 MAPK (New Englands Biolabs, Beverly, Mass.).
BHK cells stable transfected with human TF were grown to 90% confluence and starved in DMEM with 0.1% FCS for 24 hours prior to stimulation. In FIG. 9A the cells were stimulated with 100 nM FVIIa for 0, 3, 5, 7, 10 and 40 minutes before the cells were lysed and samples for Western blotting were taken.
The results shown in FIG. 9B were obtained when BHK(+TF) cells were exposed to 100 nM FVII, FVIIa, FVIIai, [Ala344]FVII or FXa for 5 min. […]

[5] = 100 nM FVIIa, 0.1 ng/ml PDGF-BB

Hirudin
effect on FVIIa/TF induced hyperchemotaxis ([1]; 5 U/ml Hirudin, 100 nM FVIIa): had no any effect | migration of fibroblast in response to PDGF without FVIIa [1]: did not influence

COc1ccc2c(c1)CC[C@@H]1[C@@H]2CC[C@]2(C)[C@@H](NCCCCCCN3C(=O)C=CC3=O)CC[C@@H]12 [Example U73122]
inhibitor concentration giving total inhibition of hyperchemotactic response [1, 5]: 1 µM | effect of inhibitor on FVIIa/TF hyperchemotactic response to PDGF-BB [1, 5]: inhibited

TAP: Tick anticoagulant peptide, specifically blocks the active site of FXa (YNRLCIKPRDWIDECDSNEGGERAYFRNGKGGCDSFWICPEDHTGADYYSSYRDCFNACI; UniProt P17726 1-60, looked up)
effect on enhanced migration response transduced by FVIIa/TF ([1]; 0.2-10 μM TAP, 100 nM FVIIa): not blocked | migration of fibroblast in response to PDGF without FVIIa [1]: did not influence

N[C@@H](CSSC[C@H](N)C(=O)NO)C(=O)NO [cystindihydroxamate, L-Cystine dihydroxamate]
effect of zinc ions to abolish FVIIa-TF complex formation / activity in presence of chelator [2]: profoundly potentiated

COc1ccc2c(c1)CC[C@@H]1[C@@H]2CC[C@]2(C)[C@@H](NCCCCCCN3C(=O)CCC3=O)CC[C@@H]12 [Example U73343]
effect of inhibitor on FVIIa/TF hyperchemotactic response to PDGF-BB [1, 5]: No effect

COc1cccc(-c2cc(=O)c3ccccc3o2)c1N [PD98059]
reporter response to 100 nM FVIIa after inhibitor pre-treatment [3]: did not respond

B1: [Ala344]FVII: FVII with Ala at catalytic residue 344 (protein, UniProt P08709 1-466, looked up, variant S344A)
chain: MVSQALRLLCLLLGLQGCLAAGGVAKASGGETRDMPWKPGPHRVFVTQEEAHGVLHRRRRANAFLEELRPGSLERECKEEQCSFEEAREIFKDAERTKLFWISYSDGDQCASSPCQNGGSCKDQLQSYICFCLPAFEGRNCETHKDDQLICVNENGGCEQYCSDHTGTKRSCRCHEGYSLLADGVSCTPTVEYPCGKIPILEKRNASKPQGRIVGGKVCPKGECPWQVLLLVNGAQLCGGTLINTIWVVSAAHCFDKIKNWRNLIAVLGEHDLSEHDGDEQSRRVAQVIIPSTYVPGTTNHDIALLRLHQPVVLTDHVVPLCLPERTFSERTLAFVRFSLVSGWGQLLDRGATALELMVLNVPRLMTQDCLQQSRKVGDSPNITEYMFCAGYSDGSKDSCKGDAGGPHATHYRGTWYLTGIVSWGQGCATVGHFGVYTRVSQYIEWLQKLMRSEPRPGVLLRAPFP
activation (phosphorylation) of p44/42 MAPK [4]: no significant activation
